The numbers were not newly measured in patent US20060014732A1, “Use of targeted oxidative therapeutic formulation in treatment of burns” (priority 2004, published 2006), which cites them from elsewhere.

Data set [1] has as its system multiple-drug resistant strain of Staphylococcus aureus. The settings on record: growing culture of S. aureus, 8 hours, with or without illumination.
Data set [2] has as its system peroxide-sensitive E. coli. The settings on record: infused into the blood.
The test system of another data set is E. coli. The settings on record: increasing concentration of peroxide ex-vivo in rabbit or human blood.

hemin: the “bactericidal effect in culture” value in data set [1] was “moderately bactericidal but light independent”. Take `OO` [hydrogen peroxide, Hydrogen peroxide]: in data set [2], the bactericidal effect result is recorded as “no bactericidal effect”. In addition, the direct bactericidal activity entry in the data set on E. coli is reported as “no evidence of direct bactericidal activity”. For `CC1=C(CCC(=O)O)c2cc3nc(cc4[nH]c(cc4C)cc4[nH]c(cc1n2)cc4C)C(C)=C3CCC(=O)O` [deuteroporphyrin], the “bactericidal effect in culture” value in data set [1] is recorded as “strongly bactericidal only after photosensitization”.
